Biological target: BTK (Homo sapiens (Human), UniProt Q06187)
Assay: biochemical

Chain of BTK (Q06187 whole entry, looked up, species assumed): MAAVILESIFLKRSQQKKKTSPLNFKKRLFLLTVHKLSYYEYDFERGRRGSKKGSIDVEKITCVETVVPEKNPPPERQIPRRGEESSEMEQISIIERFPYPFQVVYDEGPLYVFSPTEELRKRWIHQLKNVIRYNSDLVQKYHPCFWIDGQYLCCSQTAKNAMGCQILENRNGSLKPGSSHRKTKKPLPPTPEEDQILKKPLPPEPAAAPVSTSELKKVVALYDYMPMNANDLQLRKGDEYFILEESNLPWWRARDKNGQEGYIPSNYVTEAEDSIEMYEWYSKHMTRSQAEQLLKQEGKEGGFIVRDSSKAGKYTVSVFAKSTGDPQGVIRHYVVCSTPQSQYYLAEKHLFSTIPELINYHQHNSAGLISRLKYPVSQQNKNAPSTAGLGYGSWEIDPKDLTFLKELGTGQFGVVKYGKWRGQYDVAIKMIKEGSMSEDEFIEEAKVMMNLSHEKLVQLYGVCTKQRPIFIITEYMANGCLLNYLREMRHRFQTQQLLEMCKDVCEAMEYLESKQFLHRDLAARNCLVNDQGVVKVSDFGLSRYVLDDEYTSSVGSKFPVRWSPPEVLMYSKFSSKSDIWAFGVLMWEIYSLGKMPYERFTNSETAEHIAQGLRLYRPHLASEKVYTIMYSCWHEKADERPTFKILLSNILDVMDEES

Row | Compound | IC50 [nM]
1 | C=CC(=O)N1CCCC[C@H]1c1nc(-c2ccc(Oc3cccc(OC)c3F)cc2)c2cncc(C)n12 [Example 78, (S)-1-(2-(1-(4-(2-fluoro-3-methoxyphenoxy)phenyl)-5-methylimidazo[1,5-a]pyrazin-3-yl)piperidin-1-yl)prop-2-en-1-one] | 10 to 100
2 | COc1cccc(Oc2ccc(-c3nc([C@@H]4CCCN(C(=O)C(N)=O)C4)n4ccncc34)cc2)c1F [Example 3, (R)-2-(3-(1-(4-(2-fluoro-3-methoxyphenoxy)phenyl)imidazo[1,5-a]pyrazin-3-yl)piperidin-1-yl)-2-oxoacetamide] | 1000 to 10000
3 | CC#CC(=O)N1CCCC[C@H]1c1nc(-c2ccc(Oc3cccc(OC)c3F)cc2)c2c(C)ncc(C)n12 [Example 81, (S)-1-(2-(1-(4-(2-fluoro-3-methoxyphenoxy)phenyl)-5,8-dimethylimidazo[1,5-a]pyrazin-3-yl)piperidin-1-yl)but-2-yn-1-one] | 100 to 1000
4 | CC#CC(=O)N1CCCC[C@H]1c1nc(-c2ccc(OCc3cccc(F)c3)cc2)c2c(C)nccn12 [Example 140, (S)-1-(2-(1-(4-((3-fluorobenzyl)oxy)phenyl)-8-methylimidazo[1,5-a]pyrazin-3-yl)piperidin-1-yl)but-2-yn-1-one] | 100 to 1000
5 | CC#CC(=O)N1CCC[C@H]1c1nc(-c2ccc(Oc3ccccc3)cc2Cl)c2cnccn12 [Example 14, (S)-1-(2-(1-(2-chloro-4-phenoxyphenyl)imidazo[1,5-a]pyrazin-3-yl)pyrrolidin-1-yl)but-2-yn-1-one] | 1000 to 10000
6 | CC#CC(=O)N1CC[C@@H](c2nc(-c3ccc(Oc4cccc(OC)c4F)cc3)c3c(CF)nccn23)C1 [Example 120, (R)-1-(3-(1-(4-(2-fluoro-3-methoxyphenoxy)phenyl)-8-(fluoromethyl)imidazo[1,5-a]pyrazin-3-yl)pyrrolidin-1-yl)but-2-yn-1-one] | 10 to 100
7 | CC#CC(=O)N1CCCC[C@H]1c1nc(-c2ccc(C(=O)Nc3ccccn3)cc2)c2cnccn12 [Example 169, (S)-4-(3-(1-(but-2-ynoyl)piperidin-2-yl)imidazo [1,5-a]pyrazin-1-yl)-N-(pyridin-2-yl)benzamide] | 100 to 1000
8 | CC#CC(=O)N1CCC[C@@H](c2nc(-c3ccc(C(=O)Nc4ccccn4)cc3)c3cncc(C)n23)C1 [Example 179, (R)-4-(3-(1-(but-2-ynoyl)piperidin-3-yl)-5-methylimidazo[1,5-a]pyrazin-1-yl)-N-(pyridin-2-yl)benzamide] | 1000 to 10000
9 | CC#CC(=O)N1CCC[C@H]1c1nc(-c2ccc(OCc3c(F)cccc3F)cc2)c2cnccn12 [Example 137, (S)-1-(2-(1-(4-((2,6-difluorobenzyl)oxy)phenyl)imidazo[1,5-a]pyrazin-3-yl)pyrrolidin-1-yl)bul-2-yn-1-one] | 1000 to 10000
10 | C=CC(=O)N1CC[C@@H](c2nc(-c3ccc(C(=O)Nc4ccccn4)cc3)c3cnccn23)C1 [Example 176, (R)-4-(3-(1-acryloylpyrrolidin-3-yl)imidazo[1,5-a]pyrazin-1-yl)-N-(pyridin-2-yl)benzamide] | 10 to 100
11 | CC#CC(=O)N1CCC[C@H]1c1nc(-c2ccc(Oc3ccccc3OC)cc2)c2cnccn12 [Example 24, (S)-1-(2-(1-(4-(2-methoxyphenoxy)phenyl)imidazo[1,5-a]pyrazin-3-yl)pyrrolidin-1-yl)but-2-yn-1-one] | 1000 to 10000
12 | CC#CC(=O)N1CCC[C@H]1c1nc(-c2ccc(Oc3cccc(OC)c3C)cc2)c2cnccn12 [Example 21, (S)-1-(2-(1-(4-(3-methoxy-2-methylphenoxy)phenyl)imidazo[1,5-a]pyrazin-3-yl)pyrrolidin-1-yl)but-2-yn-1-one] | 100 to 1000
13 | COc1cccc(Oc2ccc(-c3nc([C@@H]4CCCN4C(=O)C(N)=O)n4ccncc34)cc2)c1F [Example 33] | 1000 to 10000
14 | CC#CN1CCC[C@H]1c1nc(-c2ccc(C(=O)Nc3cc(C(F)(F)F)ccn3)cc2)c2c(CF)nccn12 [Example 209, (S)-4-(8-(fluoromethyl)-3-(1-(prop-1-yn-1-yl)pyrrolidin-2-yl)imidazo [1,5-a]pyrazin-1-yl)-N-(4-(trifluoromethyl)pyridin-2-yl)benzamide] | 100 to 1000
15 | CC#CC(=O)N1CCCC[C@H]1c1nc(-c2ccc(C(=O)Nc3ccccn3)cc2)c2c(C)nccn12 [Example 171, (S)-4-(3-(1-(but-2-ynoyl)piperidin-2-yl)-8-methylimidazo[1,5-a]pyrazin-1-yl)-N-(pyridin-2-yl)benzamide] | 10 to 100
16 | CC#CC(=O)N1CC[C@@H](c2nc(-c3ccc(Oc4cccc(OC)c4F)cc3)c3cncc(OC(C)C)n23)C1 [Example 115, (R)-1-(3-(1-(4-(2-fluoro-3-methoxyphenoxy)phenyl)-5-isopropoxyimidazo[1,5-a]pyrazin-3-yl)pyrrolidin-1-yl)but-2-yn-1-one] | 100 to 1000
17 | C=CC(=O)N1CCCC[C@H]1c1nc(-c2ccc(Oc3cccc(OC)c3F)cc2)c2c(C)ncc(C)n12 [Example 80, (S)-1-(2-(1-(4-(2-fluoro-3-methoxyphenoxy)phenyl)-5,8-dimethylimidazo[1,5-a]pyrazin-3-yl)piperidin-1-yl)prop-2-en-1-one] | 10 to 100

Row | Compound | IC50 [nM]
18 | C=CC(=O)N1CCC[C@H]1c1nc(-c2ccc(C(=O)Nc3cccc(OC)c3F)cc2)c2cnccn12 [Example 165, (S)-4-(3-(1-acryloylpyrrolidin-2-yl)imidazo[1,5-a]pyrazin-1-yl)-N-(2-fluoro-3-methoxyphenyl)benzamide] | 100 to 1000
19 | CC#CC(=O)N1CCCC[C@H]1c1nc(-c2ccc(Oc3cccc(Cl)c3F)cc2)c2cnccn12 [Example 47, (S)-1-(2-(1-(4-(3-chloro-2-fluorophenoxy)phenyl)imidazo[1,5-a]pyrazin-3-yl)piperidin-1-yl)but-2-yn-1-one] | 100 to 1000
20 | CC#CC(=O)N1CC[C@@H](c2nc(-c3ccc(Oc4cccc(OC)c4F)cc3)c3cncc(OC4CCOC4)n23)C1 (stereo partly drawn) [Example 99, 1-((3R)-3-(1-(4-(2-fluoro-3-methoxyphenoxy)phenyl)-5-((tetrahydrofuran-3-yl)oxy)imidazo[1,5-a]pyrazin-3-yl)pyrrolidin-1-yl)but-2-yn-1-one] | 10 to 100
21 | C=CC(=O)N1CCC[C@H]1c1nc(-c2ccc(COc3ccccc3F)cc2)c2cnccn12 [Example 125, (S)-(2-(1-(4-((2-fluorophenoxy)methyl)phenyl)imidazo[1,5-a]pyrazin-3-yl)pyrrolidin-1-yl)prop-2-en-1-one] | 10 to 100
22 | CC#CC(=O)N1CCC[C@H]1c1nc(-c2ccc(C(=O)Nc3ccccn3)cc2)c2c(C)ncc(C)n12 [Example 175, (S)-4-(3-(1-(but-2-ynoyl)pyrrolidin-2-yl)-5,8-dimethylimidazo[1,5-a]pyrazin-1-yl)-N-(pyridin-2-yl)benzamide] | 100 to 1000
23 | C=CC(=O)N1CCC[C@H]1c1nc(-c2ccc(COc3ccccc3)cc2)c2cnccn12 [Example 143, (S)-1-(2-(1-(4-(phenoxymethyl)phenyl)imidazo[1,5-a]pyrazin-3-yl)pyrrolidin-1-yl)prop-2-en-1-one] | 10 to 100
24 | CC#CC(=O)N1CCC[C@H]1c1nc(-c2ccc(C(=O)Nc3ccccn3)cc2)c2cnccn12 [Example 166, (S)-4-(3-(1-(but-2-ynoyl)pyrrolidin-2-yl)imidazo[1,5-a]pyrazin-1-yl)-N-(pyridin-2-yl) benzamide] | 1000 to 10000
25 | COc1cccc(Oc2ccc(-c3nc([C@@H]4CCCN(C(=O)/C(C#N)=C/C(C)(C)C)C4)n4ccncc34)cc2)c1F [Example 2, (R,E)-2-(3-(1-(4-(2-Fluoro-3-methoxyphenoxy)phenyl)imidazo[1,5-a]pyrazin-3-yl)piperidine-1-carbonyl)-4,4-dimethylpent-2-enenitrile] | 10 to 100
26 | CC#CC(=O)N1CCCC[C@H]1c1nc(-c2ccc(OCc3cccc(F)c3F)cc2)c2c(C)nccn12 [Example 155, (S)-1-(2-(1-(4-((2,3-difluorobenzyl)oxy)phenyl)-8-methylimidazo[1,5-a]pyrazin-3-yl)piperidin-1-yl)but-2-yn-1-one] | 100 to 1000
27 | CC#CC(=O)N1CCC[C@H]1c1nc(-c2ccc(COc3ccccc3F)cc2)c2cnccn12 [Example 146, (S)-1-(2-(1-(4-((2-fluorophenoxy)methyl)phenyl)imidazo[1,5-a]pyrazin-3-yl)pyrrolidin-1-yl)but-2-yn-1-one] | 1000 to 10000
28 | CC#CC(=O)N1CCCC[C@H]1c1nc(-c2ccc(Oc3cccc(Cl)c3F)cc2)c2c(C)nccn12 [Example 43, (S)-1-(2-(1-(4-(3-chloro-2-fluorophenoxy)phenyl)-8-methylimidazo[1,5-a]pyrazin-3-yl)piperidin-1-yl)but-2-yn-1-one] | 10 to 100
29 | CC#CC(=O)N1CC[C@@H](c2nc(-c3ccc(C(=O)Nc4ccccn4)cc3)c3c(C)ncc(C)n23)C1 [Example 183, (R)-4-(3-(1-(but-2-ynoyl)pyrrolidin-3-yl)-5,8-dimethylimidazo[1,5-a]pyrazin-1-yl)-N-(pyridin-2-yl)benzamide] | 100 to 1000
30 | C=CC(=O)N1CC[C@@H](c2nc(-c3ccc(C(=O)Nc4cc(C(F)(F)F)ccn4)cc3)c3cnccn23)C1 [Example 195, (R)-4-(3-(1-acryloylpyrrolidin-3-yl)imidazo[1,5-a]pyrazin-1-yl)-N-(4-(trifluoromethyl)pyridin-2-yl)benzamide] | 10 to 100
31 | CC#CC(=O)N1CC[C@@H](c2nc(-c3ccc(Oc4cccc(OC)c4F)cc3)c3cncc(OCCN(C)C)n23)C1 [Example 90, (R)-1-(3-(5-(2-(dimethylamino)ethoxy)-1-(4-(2-fluoro-3-methoxyphenoxy)phenyl)imidazo[1,5-a]pyrazin-3-yl)pyrrolidin-1-yl)but-2-yn-1-one] | 10 to 100
32 | CC#CC(=O)N1CCC[C@H]1c1nc(-c2ccc(COc3cccc(OC)c3F)cc2)c2cnccn12 [Example 160, (S)-1-(2-(1-(4-((2-fluoro-3-methoxyphenoxy)methyl)phenyl)imidazo[1,5-a]pyrazin-3-yl)pyrrolidin-1-yl)but-2-yn-1-one] | 1000 to 10000
33 | CC#CC(=O)N1CCC[C@H]1c1nc(-c2ccc(COc3ccc(F)cc3)cc2)c2cnccn12 [Example 128, (S)-1-(2-(1-(4-((4-fluorophenoxy)methyl)phenyl)imidazo[1,5-a]pyrazin-3-yl)pyrrolidin-1-yl)but-2-yn-1-one] | 1000 to 10000
34 | CC#CC(=O)N1CCCC[C@H]1c1nc(-c2ccc(Oc3cccc(C)c3)cc2)c2c(C)nccn12 [Example 41, (S)-1-(2-(8-methyl-1-(4-(m-tolyloxy)phenyl)imidazo[1,5-a]pyrazin-3-yl)piperidin-1-yl)but-2-yn-1-one] | 10 to 100

— patent US10933063B2 (priority 2017, dated 2021)
